# Laboratory results taken from patent US20180028520A1, “METHODS AND PHARMACEUTICAL COMPOSITIONS FOR TREATMENT OF AMYOTROPHIC LATERAL SCLEROSIS” (priority 2014, published 2018).
# Columns and labels:
# [1] = tested on: brain slices derived from a mouse model of tauopathy; details: inhibition of PLDs; cited from earlier work
# ALS iPS-MNs = experiment: AIS (axon initial segment) length by ankyrin G immunostaining; assay type: cell-based, human; details: data not shown
SMILES,effect on insoluble tau aggregates [1],effect on shortening of the AIS (ALS iPS-MNs)
"O=C(NCCN1CCC(n2c(=O)[nH]c3ccccc32)CC1)c1cc2cc(F)ccc2[nH]1 [FIPI, 5-fluoro-2-indolyl des-chlorohalopemide]",increased insoluble tau aggregates,–
"C=C(C)[C@H]1CN[C@H](C(=O)O)[C@H]1CC(=O)O [kainate, kainic acid]",–,further exacerbated
